What follows are molecules tested on rabbit skeletal myofibrils (approximately 90% fast fibers) (assay: Activation of fast skeletal myofibrils (PUMA coupled-enzyme ATPase assay at pCa25)). Settings: concentration at which the compound increased the enzymatic activity by 40%; calcium at pCa25; PM12 buffer pH 6.8.
Format: biochemical
Method in brief: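 Detergent-washed rabbit psoas myofibrils tested at calcium giving 25% of maximal rate (pCa25). ATPase activity tracked by pyruvate kinase/lactate dehydrogenase coupling, NADH oxidation read as absorbance at 340 nm, in PM12 buffer (12 mM Pipes, 2 mM MgCl2, 1 mM DTT, pH 6.8).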

Q: With `CS(=O)(=O)NCc1cnc(-c2cnc(NCC3(c4ncccc4F)CCC3)nc2)s1` [({2-[2-({[(3-fluoro(2-pyridyl))cyclobutyl]methyl}amino)pyrimidin-5-yl](1,3-thiazol-5-yl)}methyl)(methylsulfonyl)amine] as the molecule, how does the “Mean AC1.4” value read?
A: B (B=1-10 uM)

Q: With `CC(=O)NCc1cccc(-c2cnc(NC(C)(C)c3ncccc3F)nc2)c1` [N-{[3-(2-{[1-(3-fluoro(2-pyridyl))-isopropyl]amino}pyrimidin-5-yl)phenyl]methyl}acetamide] as the molecule, how does the “Mean AC1.4” value read?
A: C (C=10-20 uM)

Q: How did the “Mean AC1.4” value turn out when `CNC(=O)c1cccc(-c2cnc(NCC3(c4ncccc4F)CCC3)nc2)c1` [{3-[2-({[(3-fluoro(2-pyridyl))cyclobutyl]methyl)amino)pyrimidin-5-yl]phenyl}-N-methylcarboxamide] was run?
A: B (B=1-10 uM)

Q: `CC(C)(Nc1ncc(-c2nnc(C(N)=O)s2)cn1)c1ncccc1Cl` [5-(2-{[1-(3-chloro(2-pyridyl))-isopropyl]amino}pyrimidin-5-yl)-1,3,4-thiadiazole-2-carboxamide] was tested. Which “Mean AC1.4” value did it give?
A: D (D=>20 uM)

Q: Which “Mean AC1.4” value does the source give for `CC(C)(Nc1ncc(C2N=NN=N2)cn1)c1ncccc1Cl` [(5-(5H-1,2,3,4-tetraazol-5-yl)pyrimidin-2-yl)[1-(3-chloro(2-pyridyl))-isopropyl]amine] here?
A: D (D=>20 uM)

Q: Which “Mean AC1.4” value does the source give for `CC(C)(Nc1ncc(-c2cn3ccc(C(N)=O)cc3n2)cn1)c1ncccc1Cl` [2-(2-{[1-(3-chloro(2-pyridyl))-isopropyl]amino}pyrimidin-5-yl)-4-hydroimidazo[1,2-a]pyridine-7-carboxamide] here?
A: D (D=>20 uM)

Q: How did the “Mean AC1.4” value turn out when `CSc1cccnc1C(C)(C)Nc1ncc(-c2cccc(C#N)c2)cn1` [3-(2-{[1-methyl-1-(3-methylthio(2-pyridyl))ethyl]amino}pyrimidin-5-yl)benzenecarbonitrile] was run?
A: B (B=1-10 uM)

Q: With `NC(=O)c1cc(-c2cnc(NC[C@]3(c4ncccc4F)C[C@H](F)C3)nc2)ccc1O` [5-[2-({[3-fluoro-1-(3-fluoro(2-pyridyl))cyclobutyl]methyl)amino)pyrimidin-5-yl]-2-hydroxybenzamide] as the molecule, how does the “Mean AC1.4” value read?
A: A (A=<1 uM)

Q: With `CC(C)(Nc1ncc(-c2cccc(C(N)=O)c2)cn1)c1ccc(S(C)(=O)=O)cc1` [3-[2-({1-methyl-1-[4-(methylsulfonyl)phenyl]ethyl}amino)pyrimidin-5-yl)benzamide] as the molecule, how does the “Mean AC1.4” value read?
A: D (D=>20 uM)

Q: How did the “Mean AC1.4” value turn out when `CC(C)(Nc1ncc(-c2cc(C(N)=O)ccc2F)cn1)c1ncccc1F` [4-fluoro-3-(2-{[1-(3-fluoro(2-pyridyl))-isopropyl]amino}pyrimidin-5-yl)benzamide] was run?
A: B (B=1-10 uM)

Q: `O=C(O)CNC(=O)c1cnc(NCC2(c3ncccc3F)CCC2)nc1` [2-{[2-({[(3-fluoro-2-pyridyl)cyclobutyl]methyl}amino)pyrimidin-5-yl]carbonylamino} acetic acid] was tested. Which “Mean AC1.4” value did it give?
A: D (D=>20 uM)

Q: For `O=C(Nc1ccccc1)c1ccnc(NCC2(c3ncccc3F)CCC2)n1` [[2-({[(3-fluoro(2-pyridyl))cyclobutyl]methyl}amino)pyrimidin-4-yl]-N-benzamide], which “Mean AC1.4” value is on record?
A: D (D=>20 uM)

Q: Which “Mean AC1.4” value does the source give for `CC(C)(C)Nc1ncc(-c2cccc(C(N)=O)c2)cn1` [3-{2-[(tert-butyl)amino]pyrimidin-5-yl} benzamide] here?
A: D (D=>20 uM)

Q: For `NC(=O)c1ccc(O)c(-c2cnc(NCC3(c4ncccc4F)CCC3)nc2)c1` [3-[2-({[(3-fluoro(2-pyridyl))cyclobutyl]methyl}amino)pyrimidin-5-yl]-4-hydroxybenzamide], which “Mean AC1.4” value is on record?
A: A (A=<1 uM)

Q: `CC(C)(Nc1ncc(-c2csc(C(N)=O)c2)cn1)c1ncccc1Cl` [4-(2-{[1-(3-chloro(2-pyridyl))-isopropyl]amino}pyrimidin-5-yl)thiophene-2-carboxamide] was tested. Which “Mean AC1.4” value did it give?
A: B (B=1-10 uM)

Q: For `CC(C)(Nc1ncc(-c2cccc(C(N)=O)c2)cn1)c1ccccc1S(C)(=O)=O` [3-[2-({1-methyl-1-[2-(methylsulfonyl)phenyl]ethyl}amino)pyrimidin-5-yl]benzamide], which “Mean AC1.4” value is on record?
A: D (D=>20 uM)

Q: How did the “Mean AC1.4” value turn out when `Cc1ccc(F)c([C@]2(CNc3ncc(-c4cccc(C(N)=O)c4)cn3)C[C@@H](F)C2)n1` [3-[2-({[3-fluoro-1-(3-fluoro-6-methyl(2-pyridyl))cyclobutyl]methyl}amino)pyrimidin-5-yl]benzamide] was run?
A: A (A=<1 uM)

Q: How did the “Mean AC1.4” value turn out when `N#Cc1ccnc(-c2cnc(NC[C@]3(c4ncccc4F)C[C@H](F)C3)nc2)c1` [2-[2-({[3-fluoro-1-(3-fluoro(2-pyridyl))cyclobutyl]methyl)amino)pyrimidin-5-yl]pyridine-4-carbonitrile] was run?
A: B (B=1-10 uM)

Q: For `CC(C)(Nc1ncc(-c2cn3cc(C(N)=O)ccc3n2)cn1)c1ncccc1Cl` [2-(2-{[1-(3-chloro(2-pyridyl))-isopropyl]amino}pyrimidin-5-yl)-4-hydroimidazo[1,2-a]pyridine-6-carboxamide], which “Mean AC1.4” value is on record?
A: C (C=10-20 uM)

Q: With `O=C(Nc1ccncc1)c1cnc(NCC2(c3ncccc3F)CCC2)nc1` [[2-({[(3-fluoro(2-pyridyl))cyclobutyl]methyl}amino)pyrimidin-5-yl]-N-(4-pyridyl)carboxamide] as the molecule, how does the “Mean AC1.4” value read?
A: B (B=1-10 uM)

Q: For `Nc1ncc(-c2cnc(NC[C@]3(c4ncccc4F)C[C@H](F)C3)nc2)cn1` [[5-(2-aminopyrimidin-5-yl)]pyrimidin-2-yl]{[3-fluoro-1-(3-fluoro(2-pyridyl))cyclobutyl]methyl}amine], which “Mean AC1.4” value is on record?
A: B (B=1-10 uM)

Q: How did the “Mean AC1.4” value turn out when `NC(=O)c1ccc(F)c(-c2cnc(NCC3(c4ccccn4)CCC3)nc2)c1` [4-fluoro-3-(2-{[(2-pyridylcyclobutyl]methyl]amino}pyrimidin-5-yl)benzamide] was run?
A: A (A=<1 uM)

Q: `CC(C)(O)C(=O)NCc1cnc(-c2cnc(NC(C)(C)c3ncccc3Cl)nc2)s1` [N-{[2-(2-{[1-(3-chloro(2-pyridyl))-isopropyl}amino}pyrimidin-5-yl)(1,3-thiazol-5-yl)]methyl]-2-hydroxy-2-methylpropanamide] was tested. Which “Mean AC1.4” value did it give?
A: C (C=10-20 uM)

Q: `NC(=O)c1cnc(NC2(c3ccc(F)cc3)CCC2)nc1` [2-{[(4-fluorophenyl)cyclobutyl]amino} pyrimidine-5-carboxamide] was tested. Which “Mean AC1.4” value did it give?
A: D (D=>20 uM)

Q: Which “Mean AC1.4” value does the source give for `CCOC(=O)c1cnn(-c2cnc(NCC3(c4ncccc4F)CCC3)nc2)c1` [ethyl 1-[2-({[(3-fluoro-2-pyridyl)cyclobutyl]methyl}amino)pyrimidin-5-yl] pyrazole-4-carboxylate] here?
A: D (D=>20 uM)

Q: How did the “Mean AC1.4” value turn out when `Oc1ccc(-c2cnc(NC[C@]3(c4ncccc4F)C[C@H](F)C3)nc2)cn1` [5-[2-({[3-fluoro-1-(3-fluoro(2-pyridyl))cyclobutyl]methyl}amino)pyrimidin-5-yl]pyridin-2-ol] was run?
A: D (D=>20 uM)

Q: For `CC(C)(Nc1ncc(-c2cc(C#N)ccc2F)cn1)c1ncccc1C(F)F` [3-[2-({1[3-(difluoromethyl)(2-pyridyl)]-isopropyl}amino)pyrimidin-5-yl]-4-fluorobenzenecarbonitrile], which “Mean AC1.4” value is on record?
A: B (B=1-10 uM)

Q: For `O=C(O)c1csc(-c2cnc(NCC3(c4ncccc4F)CCC3)nc2)n1` [2-[2-({[(3-fluoro-2-pyridyl)cyclobutyl]methyl}amino)pyrimidin-5-yl]-1,3-thiazole-4-carboxylic acid], which “Mean AC1.4” value is on record?
A: C (C=10-20 uM)

Q: Which “Mean AC1.4” value does the source give for `CC(C)[C@H](Nc1ncc(-c2ncc(C#N)s2)cn1)c1ncccc1Cl` [2-(2-{[(1S)-1-(3-chloro(2-pyridyl))-2-methylpropyl]amino}pyrimidin-5-yl)-1,3-thiazole-5-carbonitrile] here?
A: D (D=>20 uM)

Q: For `Fc1ccccc1-c1cnc(NC[C@]2(c3ncccc3F)C[C@H](F)C2)nc1` [{[3-fluoro-1-(3-fluoro(2-pyridyl))cyclobutyl]methyl}[5-(2-fluorophenyl)pyrimidin-2-yl]amine], which “Mean AC1.4” value is on record?
A: A (A=<1 uM)

Q: How did the “Mean AC1.4” value turn out when `CC(C)(Nc1ncc(-c2cn[nH]c2)cn1)c1ncccc1Cl` [[1-(3-chloro(2-pyridyl))-isopropyl](5-pyrazol-4-ylpyrimidin-2-yl)amine] was run?
A: B (B=1-10 uM)

Q: For `COC(=O)c1cc(-c2cnc(NC(C)(C)c3ncccc3Cl)nc2)ncn1` [methyl 6-(2-{[1-(3-chloro(2-pyridyl))-isopropyl]amino}pyrimidin-5-yl)pyrimidine-4-carboxylate], which “Mean AC1.4” value is on record?
A: D (D=>20 uM)

Q: With `Cc1nc(NC[C@]2(c3ncccc3F)C[C@H](F)C2)ncc1-c1ccc(C(N)=O)cc1` [4-[2-({[3-fluoro-1-(3-fluoro(2-pyridyl))cyclobutyl]methyl}amino)-4-methylpyrimidin-5-yl]benzamide] as the molecule, how does the “Mean AC1.4” value read?
A: D (D=>20 uM)

Q: For `COc1ccc(NC(=O)c2cnc(NCC3(c4ncccc4F)CCC3)nc2)cn1` [[2-({[(3-fluoro(2-pyridyl))cyclobutyl]methyl}amino)pyrimidin-5-yl]-N-(6-methoxy(3-pyridyl))carboxamide], which “Mean AC1.4” value is on record?
A: D (D=>20 uM)

Q: `Fc1ccc(C2(Nc3nccc(C(F)(F)F)n3)CCC2)cc1` [[(4-fluorophenyl)cyclobutyl][4-(trifluoromethyl)pyrimidin-2-yl]amine] was tested. Which “Mean AC1.4” value did it give?
A: C (C=10-20 uM)

Q: With `CNC(=O)c1ccc(O)c(-c2cnc(NC[C@]3(c4ncccc4F)C[C@H](F)C3)nc2)c1` [{3-[2-({[3-fluoro-1-(3-fluoro(2-pyridyl))cyclobutyl]methyl}amino)pyrimidin-5-yl]-4-hydroxyphenyl}-N-methylcarboxamide] as the molecule, how does the “Mean AC1.4” value read?
A: A (A=<1 uM)

Q: `Fc1ccc(C2(Nc3ncc(Br)cn3)CCC2)cc1` [(5-bromopyrimidin-2-yl)[(4-fluorophenyl)cyclobutyl]amine] was tested. Which “Mean AC1.4” value did it give?
A: D (D=>20 uM)

Q: Which “Mean AC1.4” value does the source give for `CC(C)(CNc1ncc2c(n1)CN(S(C)(=O)=O)CC2)c1ccc(F)cc1` [2-{[2-(4-fluorophenyl)-2-methylpropyl]amino}-7-(methylsulfonyl)-5,6,7,8-tetrahydropyridino[3,4-d]pyrimidine] here?
A: C (C=10-20 uM)

From patent US11369565B2, “Amino-pyrimidine skeletal muscle modulators” (Cytokinetics, Inc., priority 2010, dated 2022)
